Target: Transitional endoplasmic reticulum ATPase (Homo sapiens, UniProt P55072)
Assay: Inhibition of wild type human AAA ATPase p97 expressed in Escherichia coli measured by ADPGlo assay in presence of 100 uM ATP

Sequence of Transitional endoplasmic reticulum ATPase (P55072 whole entry): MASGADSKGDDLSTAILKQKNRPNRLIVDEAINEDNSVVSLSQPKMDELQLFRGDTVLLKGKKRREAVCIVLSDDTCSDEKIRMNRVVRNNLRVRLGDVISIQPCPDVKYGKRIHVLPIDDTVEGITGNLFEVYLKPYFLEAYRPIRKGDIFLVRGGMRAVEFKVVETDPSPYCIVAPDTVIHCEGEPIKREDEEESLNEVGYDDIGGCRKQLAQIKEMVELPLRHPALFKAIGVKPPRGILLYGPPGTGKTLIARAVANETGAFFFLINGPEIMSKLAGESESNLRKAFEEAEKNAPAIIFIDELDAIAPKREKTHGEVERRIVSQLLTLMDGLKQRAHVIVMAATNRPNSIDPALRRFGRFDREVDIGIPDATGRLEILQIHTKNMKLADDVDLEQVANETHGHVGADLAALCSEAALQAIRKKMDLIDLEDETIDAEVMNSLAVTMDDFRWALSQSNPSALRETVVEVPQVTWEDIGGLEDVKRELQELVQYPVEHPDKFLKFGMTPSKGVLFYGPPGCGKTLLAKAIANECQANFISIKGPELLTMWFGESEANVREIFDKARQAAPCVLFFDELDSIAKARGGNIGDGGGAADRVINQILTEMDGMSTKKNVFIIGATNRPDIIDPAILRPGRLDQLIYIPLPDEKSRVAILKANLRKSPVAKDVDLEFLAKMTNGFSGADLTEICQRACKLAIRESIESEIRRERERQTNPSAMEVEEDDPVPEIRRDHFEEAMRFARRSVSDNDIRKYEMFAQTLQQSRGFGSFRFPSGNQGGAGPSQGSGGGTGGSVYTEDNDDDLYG

Structure (SMILES)	IC50 [nM]
COc1ccc2[nH]c(-c3cccc(N4CCC(NCCN5CCN(C(C)C)CC5)CC4)c3)cc2c1	710
CC(C)N1CCN(CCNC2CCN(c3cccc(-c4cc5cc(S(F)(F)(F)(F)F)ccc5[nH]4)c3)CC2)CC1	21500
Cc1ccc2[nH]c(-c3cccc(N4CCC(NCCN5CCN(C(C)C)CC5)CC4)c3)cc2c1	240
CC(C)N1CCN(CCNC2CCN(c3cccc(-c4cc5cc([N+](=O)[O-])ccc5[nH]4)c3)CC2)CC1	50
CC(C)N1CCN(CCNC2CCN(c3cccc(-c4cc5cc(OC(F)(F)F)ccc5[nH]4)c3)CC2)CC1	3800
CC(C)N1CCN(CCNC2CCN(c3cccc(-c4cc5cc(C(F)(F)F)ccc5[nH]4)c3)CC2)CC1	4700

Reference: ChEMBL document CHEMBL3785079, “Structure-Activity Study of Bioisosteric Trifluoromethyl and Pentafluorosulfanyl Indole Inhibitors of the AAA ATPase p97” (ACS Med Chem Lett, 2015)
